Laboratory results from US7935688B2, “Vitamin D-like compound” (Chugai Seiyaku Kabushiki Kaisha, priority 2005, dated 2011).

Key:
[1] = system: osteocalcin production in MG-63 cells; assay: Osteocalcin production in MG-63 cells (Gla-type Osteocalcin EIA); assay type: cell-based, human; conditions: (EC50 value of 1,25(OH)2D3/EC50 value of each compound)×100; eight hours exposure, then four days culture
Procedure: mg-63 was obtained from Institute for Fermentation, Osaka as a human osteoblast-like cell line. MG-63 cells were maintained and cultured in a MEM medium (Minimum essential medium; pH 7.0; Invitrogen Corporation, Carlsbad, Calif., USA) containing 5% fetal bovine serum (FBS; HyClone, Logan, Utah, USA).
MG-63 cells were adjusted to a density of 4.0×10^4 cells/mL, plated in a 96-well plate at 200 μL per well, and cultured under conditions of 37° C. and 5% carbon dioxide for 24 hours.
After removing the medium, MEM containing 5% charcoal/dextran treated FBS (DCC-FBS; Hyclone, Logan, Utah, USA) was added at 180 μL/well. The test substance (1.0×10^−3 mol/L) was diluted with dimethyl sulfoxide (DMSO) to 1.0×10^−4 mol/L, 1.0×10^−5 mol/L, 1.0×10^−6 mol/L, 1.0×10^−7 mol/L and 1.0×10^−8 mol/L. 1,25(OH)2D3 was used as a positive control. Like the test substance, 1,25(OH)2D3 was diluted with DMSO. 0.02 mL of the positive control and the test substance diluted 100-fold with MEM containing 5% DCC-FCS was added to each well of the 96-well plate, so that the final drug concentration was 1.0×10^−6 mol/L to 1.0×10^−11 mol/L. Thereafter, the cells were cultured under conditions of 37° C. and 5% carbon dioxide for eight hours.
After culturing for eight hours, the medium was removed, and MEM containing 5% DCC-FBS was added at 0.2 mL per well. The cells were cultured under conditions of 37° C. and 5% carbon dioxide for four days, and the medium was recovered. The medium was stored at −80° C. until osteocalcin measurement.
The Gla-type Osteocalcin EIA kit (Takara Bio Inc., Tokyo, Japan) was used for measurement of osteocalcin. Measurement was carried out using a microplate reader (Model 3550, Bio-Rad Laboratories, Inc., Hercules, Calif., USA) at a wavelength of 450 nm, and the results were analyzed by Microplate Manager III (Bio-Rad Laboratories, Inc., ver. 1.57).
The median effective concentration (EC50) was calculated from the osteocalcin concentration. Potency of induction of each compound was calculated as a ratio of EC50 of 1,25(OH)2D3 to EC50 of the compound. The relation between diseases and induction of osteocalcin production is described in Lancet (1984 May 19), 1 (8386), 1091-3; Steroids 66, 159-170 (2001); and Journal of Steroid Biochemistry & Molecular Biology 89-90, 269-271 (2004), for example.
The osteocalcin production level in MG-63 cells (%) was calculated by the formula: (EC50 value of 1,25(OH)2D3/EC50 value of each compound)×100.

[2] = system: Sprague-Dawley female rats subjected to ovariectomy (OVX); assay: Effect of increasing bone density in ovariectomized rats (dual X-ray bone densitometry); assay type: in vivo, rat; conditions: forcibly orally, five times per week, pathological control group (vehicle) = 100%
Procedure: The compound of the present invention was adjusted to each concentration using middle chain triglyceride (MCT) as a base. The adjusted solution was stored under shading at 4° C. until use.
Seven-week-old Sprague-Dawley (Crj:CD(SD)) female rats (Charles River Laboratories Japan, Inc.) were preliminarily bred for one week in an environment at a room temperature of 20 to 26° C., at a humidity of 35 to 75% and with an air change of 10 times or more per hour. The rats were allowed to freely take tap water and CE-2 (CLEA Japan, Inc.) as a feed.
After preliminary breeding, the animals were subjected to ovariectomy (OVX) and divided into groups (eight animals per group) on the day after the operation. Only MCT as a base was forcibly orally administered to the sham operation group (sham) and the pathological control group (OVX-vehicle) at a dose of 1 mL/kg (five times per week). The compound of the present invention was also forcibly orally administered at the same dose five times per week.
The animals were bred in a metabolic cage and urine was collected for 24 hours after the final administration. Blood was collected from the abdominal aorta under ether anesthesia for 24 hours after the final administration. The blood was allowed to stand at room temperature for 30 minutes and then centrifuged to provide serum. The femur and lumbar spine were collected and stored in 70% ethanol until bone density measurement.
The bone density of the femur and the second to fifth lumbar spines of the isolated lumbar spines was measured by the dual X-ray bone densitometry system DCS-600-EX (ALOKA). The distal femur bone density was measured for three […] regions out of 10 regions of the femur equally divided in length. The bone density in each site was described based on the bone density of the pathological control group (vehicle group) in each experiment as 100%.
The effects of the compounds of the present invention on the lumbar spine bone density are shown in Table 2 as an example of the obtained results.

Structure (SMILES) | Osteocalcin production level in MG-63 cells (%) [1] | other results
CCC(CC)(c1ccc(-c2cncc(CC(=O)O)c2)cc1)c1ccc(CCC2(O)CCCCC2)c(C)c1 [Example 149, {5-[4-(1-ethyl-1-{4-[2-(1-hydroxy-cyclohexyl)-ethyl]-3-methyl-phenyl}-propyl)-phenyl]-pyridin-3-yl}-acetic Acid] | 1305% | Lumbar spine bone density (%) ([2]; 0.075 μg/kg): 111.40%; Lumbar spine bone density (%) ([2]; 0.15 μg/kg): 116.00%
CCC(CC)(c1ccc(OCC(O)C(C)(C)C)c(C)c1)c1ccc(-c2ccc(CC(=O)O)cn2)c(C)c1 (stereo not drawn) [Example 101, [6-(4-{1-ethyl-1-[4-(2-hydroxy-3,3-dimethyl-butoxy)-3-methyl-phenyl]-propyl}-2-methyl-phenyl)-pyridin-3-yl]-acetic Acid] | 508% | 
CCC(O)(/C=C/c1ccc(C(CC)(CC)c2ccc(-c3ccc(CC(=O)[O-])c(F)c3)c(C)c2)cc1C)CC.[Na+] [Example 48, Sodium (4′-{1-ethyl-1-[4-((E)-3-ethyl-3-hydroxy-1-pentenyl)-3-methyl-phenyl]-propyl}-3-fluoro-2′-methyl-biphenyl-4-yl)-acetate] | 508% | 
CCC(CC)(c1ccc(/C=C/C(O)(C(F)(F)F)C(F)(F)F)c(C)c1)c1ccc(-c2cccc(CC(=O)O)c2)c(C)c1 [Example 71, (4′-{1-ethyl-1-[3-methyl-4-((E)-4,4,4-trifluoro-3-hydroxy-3-trifluoromethyl-1-butenyl)-phenyl]-propyl}-2′-methyl-biphenyl-3-yl)-acetic Acid] | 746% | Lumbar spine bone density (%) ([2]; 0.025 μg/kg): 110.58%; Lumbar spine bone density (%) ([2]; 0.05 μg/kg): 115.09%
CCC(O)(/C=C/c1ccc(C(CC)(CC)c2ccc(-c3ccc(CC(=O)O)cn3)c(C)c2)cc1C)CC [Example 81, [6-(4-{1-ethyl-1-[4-((E)-3-ethyl-3-hydroxy-1-pentenyl)-3-methyl-phenyl]-propyl}-2-methyl-phenyl)-pyridin-3-yl]-acetic Acid] | 652% | Lumbar spine bone density (%) ([2]; 0.01 μg/kg): 115.66%; Lumbar spine bone density (%) ([2]; 0.02 μg/kg): 115.66%
CCC(CC)(c1ccc(/C=C/C2(O)CCCCC2)c(C)c1)c1ccc(-c2ccc(CC(=O)O)cn2)c(C)c1 [Example 91, {6-[4-(1-ethyl-1-{4-[(E)-2-(1-hydroxy-cyclohexyl)-vinyl]-3-methyl-phenyl}-propyl)-2-methyl-phenyl]-pyridin-3-yl}-acetic Acid] | 1074% | 
CCC(CC)(c1ccc(C#CC2(O)CCCCC2)c(C)c1)c1ccc(-c2ccc(CC(=O)O)c(F)c2)c(C)c1 [Example 97, (4′-{1-ethyl-1-[4-(1-hydroxy-cyclohexylethynyl)-3-methyl-phenyl]-propyl}-3-fluoro-2′-methyl-biphenyl-4-yl)-acetic Acid] | 533% | 
CCC(CC)(c1ccc(C#CC(O)(C(F)(F)F)C(F)(F)F)c(C)c1)c1ccc(-c2ccc(CC(=O)O)cc2)c(C)c1 [Example 45, (4′-{1-ethyl-1-[3-methyl-4-(4,4,4-trifluoro-3-hydroxy-3-trifluoromethyl-1-butynyl)-phenyl]-propyl}-2′-methyl-biphenyl-4-yl)-acetic Acid] | 546% | 
CCC(CC)(c1ccc(-c2cncc(CC(=O)O)c2)cc1)c1ccc(C#CC2(O)CCCC2)c(C)c1 [Example 148, [5-(4-{1-ethyl-1-[4-(1-hydroxy-cyclopentylethynyl)-3-methyl-phenyl]-propyl}-phenyl)-pyridin-3-yl]-acetic Acid] | 1022% | 
CCC(CC)(c1ccc(-c2cncc(CC(=O)O)c2)cc1)c1ccc(C#CC2(O)CCCCC2)c(C)c1 [Example 147, [5-(4-{1-ethyl-1-[4-(1-hydroxy-cyclohexylethynyl)-3-methyl-phenyl]-propyl}-phenyl)-pyridin-3-yl]-acetic Acid] | 1228% | 
CCC(CC)(c1ccc(/C=C/C2(O)CCCCC2)c(C)c1)c1ccc(-c2cc(Cl)ccc2CC(=O)O)c(C)c1 [Example 89, [5-chloro-4′-(1-ethyl-1-{4-[(E)-2-(1-hydroxy-cyclohexyl)-vinyl]-3-methyl-phenyl}-propyl)-2′-methyl-biphenyl-2-yl]-acetic Acid] |  | Lumbar spine bone density (%) ([2]; 1.25 μg/kg): 109.24%; Lumbar spine bone density (%) ([2]; 2.5 μg/kg): 121.37%
CCC(CC)(c1ccc(/C=C/C(O)(C(F)(F)F)C(F)(F)F)c(C)c1)c1ccc(-c2ccc(CC(=O)O)cc2)c(C)c1 [Example 46, (4′-{1-ethyl-1-[3-methyl-4-((E)-4,4,4-trifluoro-3-hydroxy-3-trifluoromethyl-1-butenyl)-phenyl]-propyl}-2′-methyl-biphenyl-4-yl)-acetic Acid] | 2233% | 
CCC(CC)(c1ccc(CCC(O)C(C)(C)C)c(C)c1)c1ccc(-c2cccc(CC(=O)O)c2)c(C)c1 (single isomer, unassigned) [Example 14, (4′-{1-ethyl-1-[4-(3-hydroxy-4,4-dimethyl-pentyl)-3-methyl-phenyl]-propyl}-2′-methyl-biphenyl-3-yl)-acetic Acid] | 161% | 
CCC(CC)(c1ccc(/C=C/C2(O)CCCCC2)c(C)c1)c1ccc(-c2ccc(CC(=O)O)c(Cl)c2)c(C)c1 [Example 90, [3-chloro-4′-(1-ethyl-1-{4-[(E)-2-(1-hydroxy-cyclohexyl)-vinyl]-3-methyl-phenyl}-propyl)-2′-methyl-biphenyl-4-yl]-acetic Acid] | 1604% | 
CCC(CC)(c1ccc(C#CC(O)(C(F)(F)F)C(F)(F)F)c(C)c1)c1ccc(-c2cncc(CC(=O)O)c2)c(C)c1 [Example 80, [5-(4-{1-ethyl-1-[3-methyl-4-(4,4,4-trifluoro-3-hydroxy-3-trifluoromethyl-1-butynyl)-phenyl]-propyl}-2-methyl-phenyl)-pyridin-3-yl]-acetic Acid] |  | Lumbar spine bone density (%) ([2]; 0.05 μg/kg): 110.75%; Lumbar spine bone density (%) ([2]; 0.1 μg/kg): 116.68%
CCC(CC)(c1ccc(/C=C/C(O)(C(F)(F)F)C(F)(F)F)c(C)c1)c1ccc(-c2ccc(CC(=O)O)c(F)c2)c(C)c1 [Example 72, (4′-{1-ethyl-1-[3-methyl-4-((E)-4,4,4-trifluoro-3-hydroxy-3-trifluoromethyl-1-butenyl)-phenyl]-propyl}-3-fluoro-2′-methyl-biphenyl-4-yl)-acetic Acid] | 1624% | 
